# Laboratory results reported in publication PMC10882719 (Frontiers in Neuroscience, 2024).
# Like-named read-outs stand apart in the source and are kept apart here.
# Experiments:
# Type in all cases: cell-based
# [1] = target: T1, 168 GPCRs (Homo sapiens, UniProt O43193); settings: MLNR
# T1 construct: host or cells: PathHunter cell lines
# [2] = target: T2, 168 GPCRs (Homo sapiens, UniProt P25021)
# T2 construct: host or cells: PathHunter cell lines
# [3] = target: T3, 168 GPCRs (Homo sapiens, UniProt P25024)
# T3 construct: host or cells: PathHunter cell lines
# T3 sequence (P25024 1-350): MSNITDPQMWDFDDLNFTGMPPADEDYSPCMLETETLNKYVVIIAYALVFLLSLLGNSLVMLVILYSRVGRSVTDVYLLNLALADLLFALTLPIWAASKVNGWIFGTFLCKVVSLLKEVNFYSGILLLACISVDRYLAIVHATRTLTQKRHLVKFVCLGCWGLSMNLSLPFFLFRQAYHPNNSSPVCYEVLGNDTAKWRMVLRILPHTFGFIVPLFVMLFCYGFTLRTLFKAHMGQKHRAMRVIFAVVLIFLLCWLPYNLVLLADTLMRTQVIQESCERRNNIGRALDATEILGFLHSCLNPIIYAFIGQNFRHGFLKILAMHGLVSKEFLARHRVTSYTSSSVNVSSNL
# [4] = target: T4, 168 GPCRs (Homo sapiens, UniProt P35414)
# T4 construct: host or cells: PathHunter cell lines
# T4 sequence (P35414 1-380): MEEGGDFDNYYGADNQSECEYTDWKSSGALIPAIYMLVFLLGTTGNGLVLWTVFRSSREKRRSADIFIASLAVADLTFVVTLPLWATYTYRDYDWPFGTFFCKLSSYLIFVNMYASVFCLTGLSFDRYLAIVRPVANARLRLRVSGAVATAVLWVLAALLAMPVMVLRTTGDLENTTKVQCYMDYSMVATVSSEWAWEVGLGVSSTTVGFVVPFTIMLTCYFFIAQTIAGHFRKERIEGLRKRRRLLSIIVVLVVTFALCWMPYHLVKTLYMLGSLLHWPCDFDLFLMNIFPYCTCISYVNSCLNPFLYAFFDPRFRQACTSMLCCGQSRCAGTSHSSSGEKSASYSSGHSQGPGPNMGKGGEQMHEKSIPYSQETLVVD
# [5] = target: T5, 168 GPCRs (Homo sapiens, UniProt P50391); settings: PPYR1
# T5 construct: host or cells: PathHunter cell lines
# [6] = target: T6, 168 GPCRs (Homo sapiens, UniProt Q96LB1)
# T6 construct: host or cells: PathHunter cell lines
# T6 sequence (Q96LB1 1-330): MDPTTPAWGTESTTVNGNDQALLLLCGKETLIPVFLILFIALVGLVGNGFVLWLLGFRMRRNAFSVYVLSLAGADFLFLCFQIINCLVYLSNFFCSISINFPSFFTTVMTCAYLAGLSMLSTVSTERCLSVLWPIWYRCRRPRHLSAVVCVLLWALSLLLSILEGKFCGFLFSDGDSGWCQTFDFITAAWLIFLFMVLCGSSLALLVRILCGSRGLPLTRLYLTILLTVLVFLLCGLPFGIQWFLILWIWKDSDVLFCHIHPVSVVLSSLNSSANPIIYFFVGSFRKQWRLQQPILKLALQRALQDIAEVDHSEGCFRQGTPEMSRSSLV
# [7] = target: T7, 168 GPCRs (Homo sapiens, UniProt Q9HB89); settings: NMU1R
# T7 construct: host or cells: PathHunter cell lines
# T7 sequence (Q9HB89 1-426): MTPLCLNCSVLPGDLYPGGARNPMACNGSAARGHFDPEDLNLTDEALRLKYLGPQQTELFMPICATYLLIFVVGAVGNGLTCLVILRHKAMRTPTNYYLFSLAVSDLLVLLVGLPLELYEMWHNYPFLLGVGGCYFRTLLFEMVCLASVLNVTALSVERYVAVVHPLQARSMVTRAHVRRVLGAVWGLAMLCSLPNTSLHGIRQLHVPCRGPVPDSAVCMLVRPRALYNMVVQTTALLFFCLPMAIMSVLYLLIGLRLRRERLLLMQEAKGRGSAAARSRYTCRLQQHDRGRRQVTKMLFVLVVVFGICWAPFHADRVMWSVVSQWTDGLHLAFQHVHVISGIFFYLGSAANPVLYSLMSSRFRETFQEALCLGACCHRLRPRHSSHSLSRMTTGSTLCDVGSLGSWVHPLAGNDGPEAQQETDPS
# T1 sequence (O43193 whole entry): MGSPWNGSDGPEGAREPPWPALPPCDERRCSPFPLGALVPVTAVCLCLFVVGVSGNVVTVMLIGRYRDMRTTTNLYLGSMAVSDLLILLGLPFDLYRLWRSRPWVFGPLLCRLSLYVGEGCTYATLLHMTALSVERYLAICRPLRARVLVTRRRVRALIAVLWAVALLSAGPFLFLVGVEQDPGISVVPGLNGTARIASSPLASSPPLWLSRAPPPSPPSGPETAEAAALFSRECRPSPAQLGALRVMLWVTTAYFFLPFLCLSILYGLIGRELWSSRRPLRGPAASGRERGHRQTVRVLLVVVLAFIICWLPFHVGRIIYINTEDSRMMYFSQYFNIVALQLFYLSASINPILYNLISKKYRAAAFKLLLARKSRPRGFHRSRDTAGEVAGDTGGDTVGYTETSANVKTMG
# T5 sequence (P50391 whole entry): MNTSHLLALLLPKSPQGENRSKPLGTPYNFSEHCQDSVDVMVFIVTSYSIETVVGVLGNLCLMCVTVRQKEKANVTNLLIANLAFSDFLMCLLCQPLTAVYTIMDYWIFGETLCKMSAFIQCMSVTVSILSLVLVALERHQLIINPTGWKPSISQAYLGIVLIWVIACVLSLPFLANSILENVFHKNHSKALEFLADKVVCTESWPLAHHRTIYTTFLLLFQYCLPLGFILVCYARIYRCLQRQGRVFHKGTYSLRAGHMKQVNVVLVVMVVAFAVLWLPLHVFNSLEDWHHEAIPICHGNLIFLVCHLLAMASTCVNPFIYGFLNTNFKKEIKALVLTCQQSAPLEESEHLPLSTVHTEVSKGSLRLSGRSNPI
# T2 sequence (P25021 whole entry): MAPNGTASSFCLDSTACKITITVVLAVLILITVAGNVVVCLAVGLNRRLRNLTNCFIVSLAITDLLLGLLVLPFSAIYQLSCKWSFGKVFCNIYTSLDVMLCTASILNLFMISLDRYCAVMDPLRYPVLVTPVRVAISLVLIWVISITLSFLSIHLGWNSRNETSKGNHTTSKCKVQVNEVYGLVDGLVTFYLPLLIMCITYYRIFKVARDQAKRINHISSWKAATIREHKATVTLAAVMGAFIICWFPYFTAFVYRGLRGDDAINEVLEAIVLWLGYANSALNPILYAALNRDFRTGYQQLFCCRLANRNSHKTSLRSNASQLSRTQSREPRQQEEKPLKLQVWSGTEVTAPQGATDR
SMILES,% Agonist Activity ([1]; 1 uM) [%],% Antagonist Activity ([1]; 1 uM) [%],% Agonist Activity ([1]; 10 uM) [%],% Antagonist Activity ([1]; 10 uM) [%],"% Agonist Activity ([2]; HRH2, 1 uM) [%]","% Antagonist Activity ([2]; HRH2, 1 uM) [%]","% Agonist Activity ([2]; HRH2, 10 uM) [%]","% Antagonist Activity ([2]; HRH2, 10 uM) [%]","% Agonist Activity ([3]; CXCR1, 1 uM) [%]","% Antagonist Activity ([3]; CXCR1, 1 uM) [%]","% Agonist Activity ([3]; CXCR1, 10 uM) [%]","% Antagonist Activity ([3]; CXCR1, 10 uM) [%]","% Agonist Activity ([4]; AGTRL1, 1 uM) [%]","% Antagonist Activity ([4]; AGTRL1, 1 uM) [%]","% Agonist Activity ([4]; AGTRL1, 10 uM) [%]","% Antagonist Activity ([4]; AGTRL1, 10 uM) [%]",% Agonist Activity ([5]; Conc 1 uM) [%],% Antagonist Activity ([5]; Conc 1 uM) [%],% Agonist Activity ([5]; Conc 10 uM) [%],% Antagonist Activity ([5]; Conc 10 uM) [%],also measured
"CNC(C)Cc1ccc2c(c1)OCO2 (centres unmarked) [MDMA, 3,4-Methylenedioxy methamphetamine, reference compound]",-0.3,6.2,-0.1,16.3,3.3,8.4,-3.7,15.3,-0.4,-2.4,-0.3,-4.6,-0.8,-13.4,-0.2,-8.4,0.3,5.9,0.9,6.9,"% Agonist Activity ([6]; MRGPRX2, 1 uM): -0.8%; % Antagonist Activity ([6]; MRGPRX2, 1 uM): -6%; % Agonist Activity ([6]; MRGPRX2, 10 uM): -0.8%; % Antagonist Activity ([6]; MRGPRX2, 10 uM): 1.9%; % Agonist Activity ([7]; 1 uM): 0%; % Antagonist Activity ([7]; 1 uM): -3.7%; % Agonist Activity ([7]; 10 uM): -0.1%; % Antagonist Activity ([7]; 10 uM): 6.8%"
CNC(C)C(=O)c1ccc2c(c1)OCO2 (centres unmarked) [methylone],-1.5,15.6,-1,12.3,-2.5,7.1,-2.8,8.1,-0.5,12.1,-0.1,3.1,-0.9,-3.3,-1.5,-4.1,-1.7,9.5,-1.2,6.5,"% Agonist Activity ([6]; MRGPRX2, 1 uM): 1.4%; % Antagonist Activity ([6]; MRGPRX2, 1 uM): 16.2%; % Agonist Activity ([6]; MRGPRX2, 10 uM): 0.7%; % Antagonist Activity ([6]; MRGPRX2, 10 uM): 8.9%; % Agonist Activity ([7]; 1 uM): 1.3%; % Antagonist Activity ([7]; 1 uM): -6.7%; % Agonist Activity ([7]; 10 uM): 2%; % Antagonist Activity ([7]; 10 uM): -9.3%"
